According to PMC11233931, “Remodeling tumor‐associated macrophage for anti‐cancer effects by rational design of irreversible inhibition of mitogen‐activated protein kinase‐activated protein kinase 2” (MedComm, 2024):

Legend:
Assay type in all cases: biochemical
[1] = target: T1, 380 human recombinant protein kinases (Homo sapiens, UniProt Q9NYV4); test: Eurofins kinase selectivity profile against 380 other human recombinant kinases (Table S2); conditions: CDK12/cyclinK(h), read-out: Inhibition rate
T1 construct: purchased Eurofins (Celle Lévescault)
Summary of the method: (§1)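 Profiling against 380 human recombinant kinases carried out by Eurofins at various compound concentrations.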

[2] = target: T2, 380 human recombinant protein kinases (Homo sapiens, UniProt Q09013); test: as above; conditions: DMPK(h), read-out: Inhibition rate
T2 construct: purchased Eurofins (Celle Lévescault)
T2 sequence (Q09013 1-629): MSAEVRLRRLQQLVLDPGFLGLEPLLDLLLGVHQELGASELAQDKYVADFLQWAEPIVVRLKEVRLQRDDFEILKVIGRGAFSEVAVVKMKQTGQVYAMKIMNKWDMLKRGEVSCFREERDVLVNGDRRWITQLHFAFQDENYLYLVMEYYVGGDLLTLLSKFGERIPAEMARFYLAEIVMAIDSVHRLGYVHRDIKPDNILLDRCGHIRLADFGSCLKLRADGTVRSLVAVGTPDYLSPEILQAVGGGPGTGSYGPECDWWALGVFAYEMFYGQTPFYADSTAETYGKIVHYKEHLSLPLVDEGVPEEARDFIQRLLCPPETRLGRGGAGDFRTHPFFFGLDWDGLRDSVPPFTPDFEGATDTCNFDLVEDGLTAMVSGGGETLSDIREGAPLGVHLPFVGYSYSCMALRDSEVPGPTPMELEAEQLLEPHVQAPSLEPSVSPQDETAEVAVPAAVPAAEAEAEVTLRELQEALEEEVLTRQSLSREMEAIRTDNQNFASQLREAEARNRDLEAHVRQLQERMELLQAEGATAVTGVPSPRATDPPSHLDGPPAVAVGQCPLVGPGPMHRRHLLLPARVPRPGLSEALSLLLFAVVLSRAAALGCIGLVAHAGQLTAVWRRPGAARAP
Summary of the method: as §1

[3] = target: T3, 380 human recombinant protein kinases (Homo sapiens, UniProt Q9H2G2); test: as above; conditions: SLK(h), read-out: Inhibition rate (%)
T3 construct: purchased Eurofins (Celle Lévescault)
Summary of the method: as §1

[4] = target: T4, 380 human recombinant protein kinases (Homo sapiens, UniProt Q96RG2); test: as above; conditions: PASK(h), read-out: Inhibition rate
T4 construct: purchased Eurofins (Celle Lévescault)
Summary of the method: as §1

[5] = target: T5, 380 human recombinant protein kinases (Homo sapiens, UniProt P21709); test: as above; conditions: EphA1(h), read-out: Inhibition rate
T5 construct: purchased Eurofins (Celle Lévescault)
T5 sequence (P21709 26-976): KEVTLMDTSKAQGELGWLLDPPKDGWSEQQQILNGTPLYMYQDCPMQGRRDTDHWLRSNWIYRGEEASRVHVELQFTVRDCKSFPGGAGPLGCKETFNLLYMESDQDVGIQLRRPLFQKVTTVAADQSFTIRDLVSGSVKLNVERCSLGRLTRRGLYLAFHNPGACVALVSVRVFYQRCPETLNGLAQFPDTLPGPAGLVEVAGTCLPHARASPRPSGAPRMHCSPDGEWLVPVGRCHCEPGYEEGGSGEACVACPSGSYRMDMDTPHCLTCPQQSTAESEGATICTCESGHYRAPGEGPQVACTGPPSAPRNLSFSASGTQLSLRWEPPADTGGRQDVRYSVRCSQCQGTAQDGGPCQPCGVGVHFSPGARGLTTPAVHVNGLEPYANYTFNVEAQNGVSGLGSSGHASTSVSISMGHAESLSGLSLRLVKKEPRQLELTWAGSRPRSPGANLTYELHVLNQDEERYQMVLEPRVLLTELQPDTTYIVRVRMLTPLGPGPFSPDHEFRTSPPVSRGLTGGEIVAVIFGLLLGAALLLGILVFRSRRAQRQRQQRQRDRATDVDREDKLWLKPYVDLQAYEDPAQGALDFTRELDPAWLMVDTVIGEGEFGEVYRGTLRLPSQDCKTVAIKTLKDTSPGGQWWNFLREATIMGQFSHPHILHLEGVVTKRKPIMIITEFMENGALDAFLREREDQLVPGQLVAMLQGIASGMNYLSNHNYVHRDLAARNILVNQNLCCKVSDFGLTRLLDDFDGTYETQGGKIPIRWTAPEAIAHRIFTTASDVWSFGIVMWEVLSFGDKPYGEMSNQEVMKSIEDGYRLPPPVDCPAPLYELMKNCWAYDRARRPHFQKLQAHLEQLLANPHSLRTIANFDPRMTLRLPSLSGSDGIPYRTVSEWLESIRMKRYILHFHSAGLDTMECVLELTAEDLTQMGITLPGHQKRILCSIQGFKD
Summary of the method: as §1

[6] = target: T6, 380 human recombinant protein kinases (Homo sapiens, UniProt Q9UEE5); test: as above; conditions: DRAK1(h), read-out: Inhibition rate
T6 construct: purchased Eurofins (Celle Lévescault)
T6 sequence (Q9UEE5 1-414): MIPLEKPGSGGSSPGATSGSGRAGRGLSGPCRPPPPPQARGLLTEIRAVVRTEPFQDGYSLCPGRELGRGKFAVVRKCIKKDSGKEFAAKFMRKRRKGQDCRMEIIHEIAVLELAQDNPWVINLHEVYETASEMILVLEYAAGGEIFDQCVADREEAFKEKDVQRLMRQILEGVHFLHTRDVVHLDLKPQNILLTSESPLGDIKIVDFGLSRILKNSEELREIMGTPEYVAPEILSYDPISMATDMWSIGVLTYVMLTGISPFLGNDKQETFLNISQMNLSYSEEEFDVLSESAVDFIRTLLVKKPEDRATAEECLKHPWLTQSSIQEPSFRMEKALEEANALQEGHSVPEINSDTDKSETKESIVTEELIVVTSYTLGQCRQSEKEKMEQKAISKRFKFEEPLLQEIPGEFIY
Summary of the method: as §1

MK3 = target: T7, MK3 (Homo sapiens, UniProt Q16644); test: Eurofins kinase selectivity profile, MK3
T7 construct: purchased Eurofins (Celle Lévescault)
Method: Subsequently, to ascertain whether the high potency of compound 11 was specific for MK2, an additional 380 human recombinant protein kinases were screened.
To assess the impact of various compounds on MK2 kinase activity, we utilized the ADP‐Glo Assay Kit (Promega) following the manufacturer's instructions. Luminescence measurements were taken using a SpectraMax Paradigm reader. The inhibition percentage was calculated using the following formula: ((specific signalDMSO control − specific signal inhibitor)/(specific signalDMSO control)) × 100%. The IC50 values were determined employing dose–response curve fitting via Prism (Graph Pad). Additionally, Eurofins company (Celle Lévescault) conducted the analysis on compound 11’s inhibitory activity against 380 other human recombinant kinases at various concentrations.

T4 sequence (Q96RG2 whole entry): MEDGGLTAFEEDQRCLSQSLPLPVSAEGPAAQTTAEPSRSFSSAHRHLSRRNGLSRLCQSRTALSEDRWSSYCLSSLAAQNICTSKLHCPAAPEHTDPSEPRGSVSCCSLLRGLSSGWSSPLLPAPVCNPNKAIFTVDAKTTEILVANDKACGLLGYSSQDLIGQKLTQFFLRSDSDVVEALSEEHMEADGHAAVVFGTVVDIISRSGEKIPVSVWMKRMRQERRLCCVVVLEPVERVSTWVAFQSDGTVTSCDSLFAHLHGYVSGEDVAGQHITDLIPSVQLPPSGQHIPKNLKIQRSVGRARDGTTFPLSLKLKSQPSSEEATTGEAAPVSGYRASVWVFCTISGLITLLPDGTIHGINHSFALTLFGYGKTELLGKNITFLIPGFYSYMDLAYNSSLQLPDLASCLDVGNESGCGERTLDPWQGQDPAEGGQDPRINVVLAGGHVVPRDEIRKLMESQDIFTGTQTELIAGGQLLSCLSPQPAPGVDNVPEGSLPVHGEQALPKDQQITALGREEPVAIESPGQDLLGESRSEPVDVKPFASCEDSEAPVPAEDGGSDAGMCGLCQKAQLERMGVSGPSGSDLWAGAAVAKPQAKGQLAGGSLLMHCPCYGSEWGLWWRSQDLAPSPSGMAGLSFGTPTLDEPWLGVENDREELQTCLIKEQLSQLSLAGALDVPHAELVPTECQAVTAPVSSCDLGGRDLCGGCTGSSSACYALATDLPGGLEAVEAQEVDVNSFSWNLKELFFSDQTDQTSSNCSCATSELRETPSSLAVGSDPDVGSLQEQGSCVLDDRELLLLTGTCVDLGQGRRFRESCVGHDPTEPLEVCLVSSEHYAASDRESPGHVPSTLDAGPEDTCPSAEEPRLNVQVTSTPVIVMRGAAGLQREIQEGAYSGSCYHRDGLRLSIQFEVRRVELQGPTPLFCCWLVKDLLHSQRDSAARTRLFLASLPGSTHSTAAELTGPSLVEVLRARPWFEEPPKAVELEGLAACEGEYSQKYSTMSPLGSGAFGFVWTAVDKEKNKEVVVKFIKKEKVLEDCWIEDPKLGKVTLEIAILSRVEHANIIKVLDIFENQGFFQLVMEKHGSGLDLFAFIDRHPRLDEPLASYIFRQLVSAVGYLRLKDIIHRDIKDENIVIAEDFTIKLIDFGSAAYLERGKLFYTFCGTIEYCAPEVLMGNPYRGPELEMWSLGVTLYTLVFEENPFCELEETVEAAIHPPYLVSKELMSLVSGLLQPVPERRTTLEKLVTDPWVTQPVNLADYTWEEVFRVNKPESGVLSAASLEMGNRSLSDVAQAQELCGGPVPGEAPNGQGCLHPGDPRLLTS
T7 sequence (Q16644 whole entry): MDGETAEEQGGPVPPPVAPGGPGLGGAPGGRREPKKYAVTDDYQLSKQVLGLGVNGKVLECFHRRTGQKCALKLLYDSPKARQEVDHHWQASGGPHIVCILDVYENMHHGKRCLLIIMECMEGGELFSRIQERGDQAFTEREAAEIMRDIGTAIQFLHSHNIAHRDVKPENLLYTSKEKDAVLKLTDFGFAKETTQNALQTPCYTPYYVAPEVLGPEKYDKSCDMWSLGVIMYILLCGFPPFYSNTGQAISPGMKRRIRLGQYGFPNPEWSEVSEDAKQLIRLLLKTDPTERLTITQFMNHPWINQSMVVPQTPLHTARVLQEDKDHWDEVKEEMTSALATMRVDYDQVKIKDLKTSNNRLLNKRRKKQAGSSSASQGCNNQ
T1 sequence (Q9NYV4 whole entry): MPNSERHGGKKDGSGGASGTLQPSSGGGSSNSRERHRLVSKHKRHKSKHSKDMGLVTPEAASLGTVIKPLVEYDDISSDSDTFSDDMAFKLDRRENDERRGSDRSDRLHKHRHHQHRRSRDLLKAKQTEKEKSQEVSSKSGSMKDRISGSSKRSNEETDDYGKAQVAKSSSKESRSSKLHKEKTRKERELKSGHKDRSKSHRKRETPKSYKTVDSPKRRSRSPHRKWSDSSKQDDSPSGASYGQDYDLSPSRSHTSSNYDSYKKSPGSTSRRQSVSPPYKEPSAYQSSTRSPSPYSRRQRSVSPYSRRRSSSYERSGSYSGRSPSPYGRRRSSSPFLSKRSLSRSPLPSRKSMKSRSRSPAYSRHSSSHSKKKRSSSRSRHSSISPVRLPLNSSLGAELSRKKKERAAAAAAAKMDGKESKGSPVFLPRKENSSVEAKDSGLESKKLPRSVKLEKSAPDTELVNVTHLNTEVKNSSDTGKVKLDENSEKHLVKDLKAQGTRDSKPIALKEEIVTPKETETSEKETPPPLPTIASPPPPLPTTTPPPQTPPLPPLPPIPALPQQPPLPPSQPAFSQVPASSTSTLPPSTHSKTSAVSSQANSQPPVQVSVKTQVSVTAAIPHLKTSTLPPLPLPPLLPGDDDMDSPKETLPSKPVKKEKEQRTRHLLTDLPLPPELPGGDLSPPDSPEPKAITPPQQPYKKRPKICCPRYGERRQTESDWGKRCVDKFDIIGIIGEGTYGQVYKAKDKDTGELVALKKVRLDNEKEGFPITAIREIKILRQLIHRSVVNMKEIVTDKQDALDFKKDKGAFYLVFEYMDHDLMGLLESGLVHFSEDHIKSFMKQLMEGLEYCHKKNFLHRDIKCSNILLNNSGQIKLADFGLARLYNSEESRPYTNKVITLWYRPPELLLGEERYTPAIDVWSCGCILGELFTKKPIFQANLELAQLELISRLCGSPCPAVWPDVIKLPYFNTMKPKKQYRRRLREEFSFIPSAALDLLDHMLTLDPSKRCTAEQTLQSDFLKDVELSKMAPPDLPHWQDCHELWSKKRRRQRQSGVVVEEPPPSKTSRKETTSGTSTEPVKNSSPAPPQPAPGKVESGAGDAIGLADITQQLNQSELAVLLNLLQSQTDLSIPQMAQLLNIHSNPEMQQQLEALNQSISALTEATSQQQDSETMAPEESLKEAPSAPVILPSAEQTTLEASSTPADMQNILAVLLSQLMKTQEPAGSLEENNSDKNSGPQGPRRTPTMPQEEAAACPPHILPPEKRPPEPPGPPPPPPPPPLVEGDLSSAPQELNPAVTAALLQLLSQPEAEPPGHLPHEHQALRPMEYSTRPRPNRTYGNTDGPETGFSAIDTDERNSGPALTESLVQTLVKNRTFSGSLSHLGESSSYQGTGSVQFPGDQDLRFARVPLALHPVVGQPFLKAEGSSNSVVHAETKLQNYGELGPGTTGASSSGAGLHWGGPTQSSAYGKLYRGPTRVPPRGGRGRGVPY
T3 sequence (Q9H2G2 whole entry): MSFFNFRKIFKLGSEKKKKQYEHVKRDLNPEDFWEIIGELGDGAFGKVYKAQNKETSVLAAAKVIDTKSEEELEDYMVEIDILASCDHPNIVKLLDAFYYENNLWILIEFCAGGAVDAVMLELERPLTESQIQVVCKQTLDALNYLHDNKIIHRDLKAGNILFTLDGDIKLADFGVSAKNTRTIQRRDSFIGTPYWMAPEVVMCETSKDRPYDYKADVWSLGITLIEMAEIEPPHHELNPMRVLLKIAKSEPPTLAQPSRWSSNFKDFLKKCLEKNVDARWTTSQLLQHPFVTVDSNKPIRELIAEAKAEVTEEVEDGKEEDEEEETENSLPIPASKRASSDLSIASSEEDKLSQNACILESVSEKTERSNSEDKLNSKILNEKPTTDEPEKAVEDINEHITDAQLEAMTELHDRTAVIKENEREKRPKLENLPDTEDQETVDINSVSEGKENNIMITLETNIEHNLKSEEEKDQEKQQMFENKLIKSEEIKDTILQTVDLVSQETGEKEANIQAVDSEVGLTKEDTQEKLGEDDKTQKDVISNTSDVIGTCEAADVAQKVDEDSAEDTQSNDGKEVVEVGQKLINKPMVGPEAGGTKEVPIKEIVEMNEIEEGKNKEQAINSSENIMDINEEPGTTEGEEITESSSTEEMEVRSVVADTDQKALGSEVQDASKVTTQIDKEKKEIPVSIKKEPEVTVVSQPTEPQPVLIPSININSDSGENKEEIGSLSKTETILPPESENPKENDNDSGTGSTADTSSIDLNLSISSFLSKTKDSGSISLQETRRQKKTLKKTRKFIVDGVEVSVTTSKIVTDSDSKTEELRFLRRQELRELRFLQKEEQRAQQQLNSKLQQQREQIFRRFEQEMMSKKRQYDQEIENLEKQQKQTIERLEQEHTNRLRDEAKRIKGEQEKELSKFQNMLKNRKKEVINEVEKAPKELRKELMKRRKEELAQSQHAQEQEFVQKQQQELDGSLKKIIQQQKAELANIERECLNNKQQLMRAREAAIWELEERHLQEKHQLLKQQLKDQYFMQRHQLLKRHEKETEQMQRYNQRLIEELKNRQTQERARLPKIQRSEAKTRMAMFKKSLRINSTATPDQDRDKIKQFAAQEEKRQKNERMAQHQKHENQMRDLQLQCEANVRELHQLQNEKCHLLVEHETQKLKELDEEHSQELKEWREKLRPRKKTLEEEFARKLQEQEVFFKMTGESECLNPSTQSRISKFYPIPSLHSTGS

C=CC(=O)Nc1cc(-c2cc(-c3cc4c([nH]3)CCNC4=O)ccn2)ccc1OC(F)(F)F [compound 11]
inhibition at 0.01 µM ([1]; 10 nM): -1%
inhibition at 0.1 µM ([1]; 100 nM): 1%
inhibition at 1 µM ([1]; 1000 nM): 5%
inhibition at 0.01 µM ([2]; 10 nM): -5%
inhibition at 0.1 µM ([2]; 100 nM): 1%
inhibition at 1 µM ([2]; 1000 nM): 7%
inhibition at 0.01 µM ([3]; 10 nM): 1%
inhibition at 0.1 µM ([3]; 100 nM): 4%
inhibition at 1 µM ([3]; 1000 nM): 4%
inhibition at 0.01 µM ([4]; 10 nM): 13%
inhibition at 0.1 µM ([4]; 100 nM): 4%
inhibition at 1 µM ([4]; 1000 nM): 12%
inhibition at 0.01 µM ([5]; 10 nM): -2%
inhibition at 0.1 µM ([5]; 100 nM): -5%
inhibition at 1 µM ([5]; 1000 nM): -2%
inhibition at 0.01 µM ([6]; 10 nM): 13%
inhibition at 0.1 µM ([6]; 100 nM): 41%
inhibition at 1 µM ([6]; 1000 nM): 82%
IC50 (MK3): > 100 nM
inhibition at 0.001 µM (MK3; MAPKAP-K3(h), 1 nM, read-out: Inhibition rate): -10%
inhibition at 0.01 µM (MK3; MAPKAP-K3(h), 10 nM, read-out: Inhibition rate): 1%
inhibition at 0.1 µM (MK3; MAPKAP-K3(h), 100 nM, read-out: Inhibition rate): 12%
